Here are results for four compounds from US4584187A, “Imaging agent and method of use” (priority 1981, dated 1986).

Where two headings read alike, the source gives them in different places.

Details of data set [1]: species or system Rhesus Monkeys. As to conditions: rhesus monkey, in vivo, iv, 180 min. The method, then: (§1) Biological tissue distribution studies were performed on rats, dogs and monkeys injected intravenously with 25 μCi and 100 μCi respectively of I-125 iodobenzylguanidine in an average volume of 0.3 ml, 2 ml, and 1 ml respectively. Representative samples of tissues were counted in an autogamma counter with corrections made for radioactive decay, background, and counter efficiency. To normalize for differences in animal weights, tissue concentrations are expressed as percent kilogram dose per gram.

Data set [2] is described as follows: Biological tissue distribution of I-125 iodobenzylguanidine in dogs. The class given is in vivo, Female Mongrel Dogs. The method, then:
as §1

On the set-up of data set [3]: species or system rats. The conditions noted are these: rat, in vivo, iv, 30 min. Here is the method: as §1
A short description of data set [4]: Stability of radiolabeled compound on storage in solution. It counts as physicochemical. As to conditions: 4° C., dark. The source says: The radiochemical purity was greater than 98% as determined by thin-layer chromotography on silica gel G using two solvent systems: (1) 1/l ethyl acetate: ethanol (Rf=0.0; Rf of free radioiodide=0.60); (2) 3/l n-propanol: 10% ammonium hydroxide (Rf=0.15, Rf of free radioiodide=0.75, Rf of meta-iodobenzylamine=0.35). […] Final […].

The subject of another data set is Pheochromocytomas (PHEO). Description: Scintigraphic localization of pheochromocytomas with I-131-mIBG in patients and controls. The class given is in vivo, human. Here is the method: Pheochromocytomas (PHEO) were localized with I-131-meta-iodobenzylguanidine(^131 I-mIBG). Five hypertensive patients without PHEO served as controls. I-131-mIBG, 0.5 mCi, was given i.v. Images of areas of interest were made at 24, 48 and 72 hours post-injection. Adrenal (tumor) uptake was estimated with a semioperator-independent computer algorithm. All patients with sporadic PHEO gave clinical and hormonal evidence of their disease.

For another data set, the system named is adrenal medulla. The data set can be described thus: MIBG adrenal imaging in MEN-2 patients. The class given is in vivo, human. As to conditions: for MIBG Adrenal Imaging: 1 and 2 days. The method, then: To display adrenal medullary abnormalities, 500 μCi of ^131 I-mIBG was injected into 6 patients from 5 families with MEN-2 and scintiscans were performed 1 and 2 days later. Percent administered dose uptake was calculated using a semioperator independent algorithm. Adrenal medullary function was assessed by plasma norepinephrine (N) and epinephrine (E) and urinary N, E, metanephrine (M), and normetanephrine (NM) levels.

Data set [5] relates to adrenergic neurons of the heart and chromaffin granules of the adrenal medulla. The data set can be described thus: Localization in adrenergic tissues. The class given is in vivo.

Regarding `N=C(N)NCc1cccc([125I])c1` [I-125 iodobenzylguanidine], the “Tissue concentration, Adrenal Cortex (Mean ± S.E.M.)” value in data set [1] is given as 0.42 ± .12 % Kg Dose/g; in data set [2] (dog, in vivo, iv, 120 min) it was 0.39 ± .05 % Kg Dose/g; in data set [2] (dog, in vivo, iv, 2880 min), 0.10 ± .01 % Kg Dose/g; in data set [2] (dogs (2), i.v., 30 min, adrenal cortex), 0.61 ± .02 % Kg Dose/g. Also, in data set [1], the “Tissue concentration, Adrenal Medullae (Mean ± S.E.M.)” value is 2.69 ± .28 % Kg Dose/g. Also, the “Tissue concentration, Blood (Mean ± S.E.M.)” value is listed as 0.02 ± .00 % Kg Dose/g in data set [1]; 0.02 ± .00 % Kg Dose/g in data set [2] (dog, in vivo, iv, 120 min); 0.01 ± .00 % Kg Dose/g in data set [2] (dog, in vivo, iv, 2880 min); 0.02 ± .00 % Kg Dose/g in data set [2] (dogs (2), i.v., 30 min, blood); “.03 ± .00 % Kg Dose/g” in data set [3]. Also, the “Tissue concentration, Heart (Mean ± S.E.M.)” value in data set [1] is reported as 0.64 ± .03 % Kg Dose/g; in data set [2] (dog, in vivo, iv, 120 min), 0.50 ± .10 % Kg Dose/g; in data set [2] (dog, in vivo, iv, 2880 min) it was 0.06 ± .01 % Kg Dose/g; in data set [2] (dogs (2), i.v., 30 min, heart), 0.47 ± .02 % Kg Dose/g; in data set [3], 1.09 ± .06 % Kg Dose/g. Besides, the “Tissue concentration, Liver (Mean ± S.E.M.)” value is 0.76 ± .03 % Kg Dose/g in data set [1]; 0.34 ± .03 % Kg Dose/g in data set [2] (dog, in vivo, iv, 30 min); “.017 ± .05 % Kg Dose/g” in data set [2] (dog, in vivo, iv, 120 min); 0.02 ± .00 % Kg Dose/g in data set [2] (dog, in vivo, iv, 2880 min); “.36 ± .02 % Kg Dose/g” in data set [3]. Besides, the “Tissue concentration, Lung (Mean ± S.E.M.)” value in data set [1] is recorded as 0.17 ± .00 % Kg Dose/g; in data set [2] (dog, in vivo, iv, 30 min), 0.22 ± .06 % Kg Dose/g; in data set [2] (dog, in vivo, iv, 120 min) it was 0.46 ± .13 % Kg Dose/g; in data set [2] (dog, in vivo, iv, 2880 min), 0.03 ± .00 % Kg Dose/g; in data set [3], “.70 ± .06 % Kg Dose/g”. For the same compound, the “Tissue concentration, Muscle (Mean ± S.E.M.)” value is listed as 0.02 ± .00 % Kg Dose/g in data set [1]; 0.02 ± .00 % Kg Dose/g in data set [2] (dog, in vivo, iv, 30 min); 0.04 ± .00 % Kg Dose/g in data set [2] (dog, in vivo, iv, 120 min); 0.02 ± .00 % Kg Dose/g in data set [2] (dog, in vivo, iv, 2880 min); “.25 ± .02 % Kg Dose/g” in data set [3]. Moreover, the “Tissue concentration, Thyroid (Mean ± S.E.M.)” value in data set [2] (dog, in vivo, iv, 30 min) is reported as 0.56 ± .07 % Kg Dose/g; in data set [2] (dogs (2), i.v., 2 hours, thyroid) it was 0.56 ± .05 % Kg Dose/g; in data set [2] (dogs (2), i.v., 48 hours, thyroid), 1.27 ± .47 % Kg Dose/g; in data set [3], “.76 ± .04 % Kg Dose/g”. The “Tissue concentration, Adrenal Medulla (Mean ± S.E.M.)” value in data set [2] (dog, in vivo, iv, 120 min) is 6.29 ± .25 % Kg Dose/g; in data set [2] (dog, in vivo, iv, 2880 min), 13.6 ± 1.1 % Kg Dose/g; in data set [2] (dogs (2), i.v., 30 min, adrenal medulla), 5.35 ± .71 % Kg Dose/g.

In the case of `N=C(N)NCc1cccc([123I])c1` [I^123 -meta-iodobenzylguanidine], the “radio-composition (decomposition) on storage” value in data set [4] (up to 4 days as sulfate salt in water or physiological buffered saline, I-123) is listed as “minimal detectable radio-composition”.

Regarding `N=C(N)NCc1cccc([131I])c1` [^131 I-mIBG, I^131 -meta-iodobenzylguanidine], the “activity seen in malignant (metastatic) PHEO” value in the data set with Pheochromocytomas (PHEO) (another patient with malignant (metastatic) PHEO) is “only ill-defined activity was seen”; with Pheochromocytomas (PHEO) (one patient with malignant (metastatic) PHEO) it was “multiple areas of activity were seen in the skull, chest and abdomen”. Also, in the data set with Pheochromocytomas (PHEO) (each of eight PHEO patients, 0.5 mCi i.v., 24, 48 and 72 hours), the “scintigrams in PHEO patients” value is recorded as “located abnormal collections of activity”. In the data set with Pheochromocytomas (PHEO) (eight PHEO patients, 0.5 mCi i.v.), the “patients in whom abnormalities correspond to PHEOs subsequently excised” value is on record as 7 of the 8. For the same compound, in the data set with Pheochromocytomas (PHEO) (five hypertensive controls without PHEO, 0.5 mCi i.v., 24, 48 and 72 hours), the “scintigraphic image of adrenal glands in control subjects” value was “little or no scintigraphic image of their adrenal glands”. The “MIBG Adrenal Imaging” value with adrenal medulla (patient 1 (apparently unaffected, plasma/urine normal), 500 μCi) is on record as “Nonvisualized”; in the data set on adrenal medulla (patient 2 (MEN 2a, plasma/urine normal), 500 μCi), “Nonvisualized”; in the data set on adrenal medulla (patient 3 (MEN 2a, urine M raised), 500 μCi), “Faint bilateral”; in the data set on adrenal medulla (patient 4 (MEN 2b, plasma N, urine NM raised), 500 μCi), “Distinct bilateral”; with adrenal medulla (patient 5 (MEN 2a, plasma N,E, urine E,NM,M raised), 500 μCi) it was “Distinct bilateral”; in the data set with adrenal medulla (patient 6 (MEN 2a, plasma N,E, urine E,NM,M raised), 500 μCi), “Asymmetric bilateral”. For the same compound, in the data set with adrenal medulla (patient 6, confirmed at surgery, only irregular area on CT), the “scintigraphy of right adrenal gland” value is “two distinct tumors”. For the same compound, the “adrenal imaging, patients 1 and 2” value with adrenal medulla (patients 1 and 2, pattern recognized by control studies as normal) is “Neither patient 1 nor patient 2, who was affected with medullary thyroid carcinoma, showed adrenal imaging”. Moreover, in the data set with adrenal medulla (remaining 4 patients (3-6), 500 μCi), the “percent uptake by the adrenal glands versus hormone values” was “increased proportionally to the urine and plasma hormone values”. For the same compound, the decomposition on storage result in data set [4] (up to 4 days as sulfate salt in water or physiological saline, I-131) is “no detectable decomposition”.

In the case of `N=C(N)NCc1cccc(I)c1` [meta-iodobenzylguanidine, Meta-iodobenzylguanidine], the “accumulation in adrenergic tissues” value in data set [5] (compared with norepinephrine and guanethidine) was “accumulated in adrenergic tissues in a manner similar to norepinephrine and guanethidine”. The localization result in data set [5] (heart and adrenal medulla) is “localizes in the adrenergic neurons of the heart and chromaffin granules of the adrenal medulla”.
